Test results reported in paper PMC9781117, “New 5-Aryl-1,3,4-Thiadiazole-Based Anticancer Agents: Design, Synthesis, In Vitro Biological Evaluation and In Vivo Radioactive Tracing Studies” (Pharmaceuticals, 2022).
Values after ≈ are worked out from the molar mass of the structure shown.

Key:
[1] = test system: HepG2 human hepatocellular carcinoma cells; experiment: MTT cytotoxicity assay, HepG2; format: cell-based; details: for IC50: Homo sapiens; for IC50 / IC50 HepG2: MTT, 48 h, means ± SD of three independent experiments
Procedure: (§1) The in vitro cytotoxicity of the synthesized 1,3,4-thiadiazole derivatives against breast adenocarcinoma cells (MCF-7) and human hepatocellular carcinoma (HepG2) cell lines were evaluated by the MTT assay, using 5-Fluorouracil (5-FU) as a positive control.
(§2) Human hepatocellular carcinoma (HepG2) cells and breast adenocarcinoma (MCF7) cells were purchased from the American Type Culture Collection (ATCC, USA). Under 37 °C with 5% CO2 in a humid incubator, cells were propagated using RPMI supplemented with 10% fetal bovine serum (FBS) and 1% v/v penicillin-streptomycin.
(§3) According to Tim Mosmann’s approach, an MTT assay was performed to assess the antiproliferative properties of the compounds. In short, HepG2 or MCF7 cells (0.5 × 105) were grown in flat-bottom 96-well microplates in 180 μL/well RPMI media supplemented with 10% fetal bovine serum, 2μmol/mL L-glutamine, 250 ng/mL fungizone, and 100 units/mL penicillin-streptomycin solutions at 37 °C in a CO2 incubator. Following incubation, 180 μL/well of the new serum-free medium was added to each well after the old media had been withdrawn. After that, cells were exposed to 20 μL of various concentrations of the compounds (50–0.75 μg/mL) and were incubated for 48 h at 37 °C in a humidified 5% CO2 environment. The MTT solution (20 µL/well) was added and incubated for a further 4 h. The plate was agitated at room temperature while acidified isopropanol (160 μL/well) was added to dissolve the formazan crystals. The absorbance at 570 nm was then determined photometrically using the microplate ELISA reader (FLUOstar Omega, BMG, Labtech, Germany). Graph-Pad PRISM version 6 was used to determine the IC50 for each compound.

[2] = test system: MCF-7 breast adenocarcinoma cells; experiment: MTT cytotoxicity assay, MCF-7; format: cell-based, human; details: for IC50: Homo sapiens, MCF7; for IC50 / IC50 MCF-7: MTT, 48 h, means ± SD of three independent experiments; for fold increase in activity relative to parent analogue: MCF-7, 4d vs 4c, 5b, 5c, 5d vs 5a
Procedure: as §1, §2, §3

HepG2 cells [3] = experiment: Annexin V-FITC/PI flow cytometric apoptosis analysis, HepG2; format: cell-based, human; details: HepG2, IC50 concentration, 48 h
Source text: Propidium iodide (PI) and annexin-V-FITC were used in a flow cytometric investigation on HepG2 and MCF-7 cells to better understand the manner of cell death caused by 4e and 4i, respectively. […] Apoptosis evasion is one of the hallmarks of cancer progression because the loss of apoptosis control prolongs cancer cell survival and allows for the accumulation of mutations that can promote angiogenesis and cell proliferation, disrupt differentiation, and increase invasiveness throughout tumor progression, thus one of the key purposes of apoptosis is to prevent cancer.
The apoptotic activity of compounds 4e and 4i was measured using the annexin V fluorescein isothiocyanate (FITC)/propidium iodide (PI) apoptosis detection kit (BioVision, USA, Catalog #: K101-25) following the manufacturer’s instructions. […] Cells were collected by trypsinization, washed twice using PBS and then 1 × 10^5 cells were resuspended in PBS and stained for 15 min at room temperature in the dark with 5 µL Annexin V-FITC and 5 µL PI in 1x binding buffer. Annexin V-FITC binding was analyzed by a BD FACS Calibur flow cytometry (Ex = 488 nm; Em = 530 nm) using a FITC signal detector (FL1) and PI staining by the phycoerythrin emission signal detector (FL2).

HepG2 cells [4] = experiment: Cell cycle analysis by flow cytometry (PI), HepG2; format: cell-based, human; details: HepG2, IC50 concentration, 48 h, vs control
Procedure: The cell cycle is made up of several intricately linked processes that enable the cell to develop and multiply. In cancer, the genetic and epigenetic abnormalities in the cell cycle-related genes result in an unchecked proliferation of mutated cells and alteration of cell cycle progression. For further investigation of the inhibitory effects of 4e and 4i compounds on the proliferation of HepG2 and MCF-7 cells, respectively, we examined the cell cycle distribution and DNA content after 48 h of the treatment. […] Consequently, the arrest in the G2/M phase mediates apoptosis via a mitochondrial apoptotic pathway.
Immediately after incubation, trypsinization was used to collect the cells, which were then washed twice with ice-cold PBS before being fixed in 70% (v/v) ethanol at […], re-suspended with 0.1 mg/mL RNase, stained with […] propidium iodide (PI), and incubated for 1 h. The DNA contents of the cells were then analyzed by flow cytometry using an FL2 (λex/em 493/636 nm) signal detector (Abcam, UK, ab139418).

HepG2 cells [5] = experiment: AO/EB fluorescent stain, apoptotic and necrotic cells, HepG2; format: cell-based, human; details: HepG2, IC50 concentration, 48 h, vs untreated control cells
Procedure: Morphologically, there are three different modes of cell death: apoptosis, autophagy, and necrosis (types I, II, and III, respectively).
Fluorescence labeling with acridine orange/ethidium bromide (AO/EB) was used to determine the ratio between apoptosis and necrosis to evaluate the mode of cell death. HepG2 and MCF-7 cells were seeded in six-well plates with DMEM media supplemented with 10% FBS and allowed to settle overnight at 37 °C with 5% CO2 in a humidified incubator. […] 5-FU was used as a positive standard for both cell lines. After incubation, cells were collected by trypsinization and stained using a dye solution of AO and EB in PBS (1:1) for 20 min. The cells were examined using fluorescence microscopy. Each sample had at least 500 counted cells, and the percentage of apoptotic or necrotic cells was determined by […] the number of apoptotic or necrotic cells by the total number of cells counted by 100. The experiment was performed three times in triplicate.

VEGF in HepG2 cells = experiment: ELISA VEGF level, HepG2; format: cell-based, human; details: HepG2, IC50, 48 h, compared to control and 5-FU treated cells
Source text: (§4) The overexpression of antiapoptotic proteins, such as Bcl-2, and the underexpression of proapoptotic proteins, such as Bax, are two common ways that the apoptotic pathway is suppressed in cancer. […] Therefore, a rise in Bax expression and a decrease in Bcl-2 can trigger the apoptotic process and eradicate cancer cells. […] This in turn activates the intrinsic pathway of apoptosis; thus, we next examined their effect on caspase 9 levels. Caspases (cysteine aspartyl-specific proteases), a class of cysteine proteins that cleave target proteins, play a role in executing apoptosis. […] Moreover, we evaluated the effect of the two compounds on the vascular endothelial growth factor VEGF expression. VEGF is one of the pro-angiogenic proteins; upon binding to VEGF receptors in the endothelial cells, it activates phosphorylation, causing increased angiogenesis and resulting in abnormal vasculature in the tumor tissue.
(§5) The protein levels of Bax, Bcl2, caspase 9, and VGEF were estimated using an ELISA assay. […] Cells from each group were scraped off and washed with PBS and then cell pellets were collected from each flask. […] The supernatants were then used for ELISA assays in accordance with the manufacturer’s instructions for the ELISA kits (Sunlong Biotech, China), and absorbance and calculations were carried out using an ELISA reader (FLUOstar Omega, BMG, Labtech, Germany).

caspase 9 in HepG2 cells = experiment: ELISA caspase 9 level, HepG2; format: cell-based, human; details: HepG2, IC50, 48 h
Source text: as §4, §5

[6] = test system: Bax/Bcl-2 ratio in HepG2 cells; experiment: ELISA Bax/Bcl-2 ratio, HepG2; format: cell-based, human; details: HepG2, IC50, 48 h, compared to control and 5-FU treated cells
Source text: as §4, §5

[7] = test system: normal mammalian Vero cells; experiment: Cytotoxicity against normal Vero cells; format: cell-based; details: Chlorocebus sabaeus
[8] = test system: breast cancer MCF-7 cells; design: method as in PMID 22261027; details: cited from earlier work

For `CCOc1ccc(N2CCN(CC(=O)Nc3nnc(-c4ccc(Cl)cc4)s3)CC2)cc1` [Compound 4f, N-(5-(4-Chlorophenyl)-1,3,4-Thiadiazol-2-yl)-2-(4-(4-Ethoxyphenyl)Piperazin-1-yl)Acetamide], the IC50 ([1]; HepG2) was 38.1 ± 0.14 µg/mL (≈ 83.2 µM), the IC50 [2] was 18.4 ± 0.85 µg/mL (≈ 40.2 µM) and the melting point was 225 to 227 °C.

With `Cc1ccc(N2CCN(CC(=O)Nc3nnc(-c4ccc(Cl)cc4)s3)CC2)cc1` [Compound 4d, N-(5-(4-Chlorophenyl)-1,3,4-Thiadiazol-2-yl)-2-(4-(4-Tolyl)Piperazin-1-yl)Acetamide] the IC50 ([1]; HepG2) was 44.9 ± 1.54 µg/mL (≈ 105 µM), the IC50 [2] was 21.8 ± 0.43 µg/mL (≈ 50.8 µM) and the “fold increase in activity relative to parent analogue” value [2] was > 2 fold. For the same molecule, the melting point was 222 to 224 °C.

For “N-(4-Bromophenyl)-4-((5-(4-Chlorophenyl)-1,3,4-Thiadiazol-2-yl)Imino)-4,5-Dihydrothiazol-2-Amine [Compound 5e]”, the “IC50 HepG2” value [1] was 25.77 ± 0.64 µg/mL and the “IC50 MCF-7” value [2] was 3.77 ± 0.13 µg/mL.

Work on `CN1CCN(CC(=O)Nc2nnc(-c3ccc(Cl)cc3)s2)CC1` [Compound 4a, N-(5-(4-Chlorophenyl)-1,3,4-Thiadiazol-2-yl)-2-(4-Methylpiperazin-1-yl)Acetamide] yielded an IC50 ([1]; HepG2) of 26.3 ± 5.76 µg/mL (≈ 74.7 µM), an IC50 [2] of 51.56 ± 0.48 µg/mL (≈ 147 µM) and a melting point of 168 to 170 °C.

For “4-((5-(4-Chlorophenyl)-1,3,4-Thiadiazol-2-yl)Imino)-N-(4-Tolyl)-4,5-Dihydrothiazol-2-Amine [Compound 5b]”, the “IC50 HepG2” value [1] was 8.81 ± 0.64 µg/mL, the “fold increase in activity relative to parent analogue” value [2] was 2- to 4 fold and the “IC50 MCF-7” value [2] was 12.64 ± 0.47 µg/mL.

With `CCOc1ccccc1N1CCN(CC(=O)Nc2nnc(-c3ccc(Cl)cc3)s2)CC1` [Compound 4e, N-(5-(4-Chlorophenyl)-1,3,4-Thiadiazol-2-yl)-2-(4-(2-Ethoxyphenyl)Piperazin-1-yl)Acetamide] the “fold increase in efficacy relative to parent analogue” value ([1]; HepG2, 4b vs 4a, 4e vs 4f) was 12 fold, the IC50 ([1]; HepG2) was 3.13 ± 0.2 µg/mL (≈ 6.83 µM) and the “SI Values HepG2” value ([1]; selectivity index, HepG2 over normal Vero cells) was 49.20. The “main mode of cell death (annexin-V/PI)” value (HepG2 cells [3]) was “apoptosis”, the “total cell death (annexin-V/PI)” value (HepG2 cells [3]; vs untreated cells) was “induced significant total cell death” and the IC50 [2] was 5.36 ± 0.36 µg/mL (≈ 11.7 µM). The “SI Values MCF-7” value ([2]; selectivity index, MCF-7 over normal Vero cells) was 28.79, the cell cycle arrest (HepG2 cells [4]) was “significantly arrested HepG2 cells in the S phase” and the “apoptosis and necrosis (AO/EB stain)” value (HepG2 cells [5]) was “significantly enhanced apoptosis and necrosis”. The VEGF level (VEGF in HepG2 cells) was “significantly suppressed”, the “caspase 9 level” value (caspase 9 in HepG2 cells) was “significantly enhanced” and the Bax/Bcl-2 ratio [6] was “significant increase”. It also gave an IC50 [7] of 154 ± 32.2 µg/mL (≈ 337 µM).

For `COc1ccc(/C=C/C(=O)Nc2nnc(-c3ccc(OC)cc3)s2)cc1` [II], the “IC50 MCF-7 growth inhibition” value [8] is listed as 0.28 µg/mL (≈ 0.762 µM) and the “cell cycle effect in MCF-7 cells” value [8] is listed as “cell cycle arrest at the G2/M phase”.

In the case of “4-((5-(4-Chlorophenyl)-1,3,4-Thiadiazol-2-yl)Imino)-N-(4-Ethylphenyl)-4,5-Dihydrothiazol-2-Amine [Compound 5c]”, the “IC50 HepG2” value [1] is reported as 11.25 ± 0.44 µg/mL, the “fold increase in activity relative to parent analogue” value [2] is reported as 2- to 4 fold and the “IC50 MCF-7” value [2] is reported as 5.72 ± 0.17 µg/mL.

For `O=C(CN1CCN(C(=O)c2ccco2)CC1)Nc1nnc(-c2ccc(Cl)cc2)s1` [Compound 4h, N-(5-(4-Chlorophenyl)-1,3,4-Thiadiazol-2-yl)-2-(4-(Furan-2-Carbonyl)Piperazin-1-yl)Acetamide], the IC50 ([1]; HepG2) was 8.35 ± 0.15 µg/mL (≈ 19.3 µM) and the IC50 [2] was 3.21 ± 0.3 µg/mL (≈ 7.43 µM).

For “4-((5-(4-Chlorophenyl)-1,3,4-Thiadiazol-2-yl)Imino)-N-Phenyl-4,5-Dihydrothiazol-2-Amine [Compound 5a]”, the “IC50 HepG2” value [1] was 26.12 ± 2.02 µg/mL and the “IC50 MCF-7” value [2] was 24.79 ± 2.30 µg/mL.

For “4-((4-((5-(4-Chlorophenyl)-1,3,4-Thiadiazol-2-yl)Imino)-4,5-Dihydrothiazol-2-yl)Amino)Phenol [Compound 5d]”, the “IC50 HepG2” value [1] was 14.12 ± 0.01 µg/mL, the “fold increase in activity relative to parent analogue” value [2] was 2- to 4 fold and the “IC50 MCF-7” value [2] was 6.12 ± 0.51 µg/mL.

Molecule `O=C(C[n+]1ccccc1)Nc1nnc(-c2ccc(Cl)cc2)s1.[Cl-]` [Compound 3, 1-(2-((5-(4-Chlorophenyl)-1,3,4-Thiadiazol-2-yl)Amino)-2-Oxoethyl)Pyridinium Chloride] has an IC50 ([1]; HepG2) of 13 ± 0.11 µg/mL and an IC50 [2] of 7.56 ± 1.2 µg/mL.

Work on `O=c1[nH]cc(F)c(=O)[nH]1` [Compound 5-FU, 5-Fluorouracil, reference compound] yielded an IC50 ([1]; HepG2) of 8.4 ± 1.2 µg/mL (≈ 64.6 µM) and an IC50 [2] of 6.8 ± 0.9 µg/mL (≈ 52.3 µM).

Molecule `O=C(CN1CCN(c2ccc(F)cc2)CC1)Nc1nnc(-c2ccc(Cl)cc2)s1` [Compound 4g, N-(5-(4-Chlorophenyl)-1,3,4-Thiadiazol-2-yl)-2-(4-(4-Fluorophenyl)Piperazin-1-yl)Acetamide] has an IC50 ([1]; HepG2) of 13.9 ± 0.59 µg/mL (≈ 32.1 µM) and an IC50 [2] of 10.1 ± 1.2 µg/mL (≈ 23.4 µM).

With `CCN1CCN(CC(=O)Nc2nnc(-c3ccc(Cl)cc3)s2)CC1` [Compound 4b, N-(5-(4-Chlorophenyl)-1,3,4-Thiadiazol-2-yl)-2-(4-Ethylpiperazin-1-yl)Acetamide] the IC50 ([1]; HepG2) was 3.55 ± 0.05 µg/mL (≈ 9.7 µM) and the IC50 [2] was 25.2 ± 1.3 µg/mL (≈ 68.9 µM).

For `O=C(CN1CCN(c2ccccc2)CC1)Nc1nnc(-c2ccc(Cl)cc2)s1` [Compound 4c, N-(5-(4-Chlorophenyl)-1,3,4-Thiadiazol-2-yl)-2-(4-Phenylpiperazin-1-yl)Acetamide], the IC50 ([1]; HepG2) was 27.9 ± 0.93 µg/mL (≈ 67.5 µM) and the IC50 [2] was 49.4 ± 3.5 µg/mL (≈ 119 µM).
